Patent publication US6358885B1, “Substituted phenylheterocyclic herbicides” (Mississippi State University, priority 1992, dated 2002)

Columns and labels:
Assay in all cases: Test B preemergence/postemergence greenhouse plant response rating 0 to 10
morningglory = type: in vivo, Ipomoea hederacea; details: for Plant response rating, Morningglory: 0 to 10 scale; for Plant response rating (0 to 10 scale), Morningglory: Rate 100 g/ha
Outline: (§1)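 Test chemicals, dissolved in a non-phytotoxic solvent, were applied to soil at planting and, at the same time, over foliage of seedlings at the one to four leaf stage.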

wild oat = type: in vivo, Avena fatua; details: for Plant response rating, Wild oat: 0 to 10 scale; for Plant response rating (0 to 10 scale), Wild oat: Rate 100 g/ha
Outline: as §1

sorghum = type: in vivo, Sorghum bicolor; details: for Plant response rating, Sorghum: 0 to 10 scale; for Plant response rating (0 to 10 scale), Sorghum: Rate 100 g/ha
Outline: as §1

cocklebur = type: in vivo, Xanthium pensylvanicum; details: for Plant response rating, Cocklebur: 0 to 10 scale
Outline: as §1

wheat = type: in vivo, Triticum aestivum; details: for Plant response rating, Wheat: 0 to 10 scale; for Plant response rating (0 to 10 scale), Wheat: Rate 100 g/ha
Outline: as §1

barnyardgrass = type: in vivo, Echinochloa crus-galli; details: for Plant response rating, Barnyardgrass: 0 to 10 scale
Outline: as §1

rice = type: in vivo, Oryza sativa; details: for Plant response rating, Rice: 0 to 10 scale; for Plant response rating (0 to 10 scale), Rice: Rate 100 g/ha
Outline: as §1

cotton = type: in vivo, Gossypium hirsutum; details: for Plant response rating, Cotton: 0 to 10 scale
Outline: as §1

Clc1ccc(-c2nc3n(c2Cl)CCC=C3)c(Cl)c1 [Compound 1]
1: Plant response rating, Wheat (wheat; POSTEMERGENCE, Rate 50 g/ha)
6: Plant response rating, Morningglory (morningglory; POSTEMERGENCE, Rate 50 g/ha)
2: Plant response rating, Wild oat (wild oat; POSTEMERGENCE, Rate 50 g/ha) | Plant response rating, Wild oat (wild oat; POSTEMERGENCE, Rate 200 g/ha) | Plant response rating, Wheat (wheat; POSTEMERGENCE, Rate 200 g/ha) | Plant response rating (0 to 10 scale), Barnyardgrass (barnyardgrass; POSTEMERGENCE, Rate 50 g/ha)
3: Plant response rating, Barnyardgrass (barnyardgrass; POSTEMERGENCE, Rate 200 g/ha) | Plant response rating, Rice (rice; POSTEMERGENCE, Rate 200 g/ha)
4: Plant response rating, Sorghum (sorghum; POSTEMERGENCE, Rate 50 g/ha) | Plant response rating, Sorghum (sorghum; POSTEMERGENCE, Rate 200 g/ha) | Plant response rating (0 to 10 scale), Cocklebur (cocklebur; POSTEMERGENCE, Rate 50 g/ha) | Plant response rating, Cocklebur (cocklebur; POSTEMERGENCE, Rate 200 g/ha) | Plant response rating, Rice (rice; POSTEMERGENCE, Rate 50 g/ha)
8: Plant response rating, Cotton (cotton; POSTEMERGENCE, Rate 200 g/ha)
7: Plant response rating, Morningglory (morningglory; POSTEMERGENCE, Rate 200 g/ha) | Plant response rating (0 to 10 scale), Cotton (cotton; POSTEMERGENCE, Rate 50 g/ha)
0: Plant response rating, Morningglory (morningglory; PREEMERGENCE, Rate 50 g/ha) | Plant response rating, Morningglory (morningglory; Rate 200 g/ha, PREEMERGENCE) | Plant response rating, Wild oat (wild oat; Rate 200 g/ha, PREEMERGENCE) | Plant response rating, Sorghum (sorghum; PREEMERGENCE, Rate 50 g/ha) | Plant response rating, Sorghum (sorghum; Rate 200 g/ha, PREEMERGENCE) | Plant response rating, Cocklebur (cocklebur; PREEMERGENCE, Rate 50 g/ha) | Plant response rating, Cocklebur (cocklebur; Rate 200 g/ha, PREEMERGENCE) | Plant response rating, Wheat (wheat; PREEMERGENCE, Rate 50 g/ha) | Plant response rating, Wheat (wheat; Rate 200 g/ha, PREEMERGENCE) | Plant response rating, Barnyardgrass (barnyardgrass; PREEMERGENCE, Rate 50 g/ha) | Plant response rating, Barnyardgrass (barnyardgrass; Rate 200 g/ha, PREEMERGENCE) | Plant response rating, Rice (rice; PREEMERGENCE, Rate 50 g/ha) | Plant response rating, Rice (rice; Rate 200 g/ha, PREEMERGENCE) | Plant response rating, Cotton (cotton; PREEMERGENCE, Rate 50 g/ha) | Plant response rating, Cotton (cotton; Rate 200 g/ha, PREEMERGENCE)

Clc1ccc(-c2nc3n(c2Br)CCCC3)c(Cl)c1 [Compound 2]
8: Plant response rating, Cocklebur (cocklebur; POSTEMERGENCE, Rate 400 g/ha)
10: Plant response rating (0 to 10 scale), Cotton (cotton; POSTEMERGENCE, Rate 100 g/ha) | Plant response rating, Cotton (cotton; POSTEMERGENCE, Rate 400 g/ha)
6: Plant response rating, Cocklebur (cocklebur; POSTEMERGENCE, Rate 200 g/ha)
0: Plant response rating, Morningglory (morningglory; PREEMERGENCE, Rate 50 g/ha) | Plant response rating (0 to 10 scale), Morningglory (morningglory; PREEMERGENCE) | Plant response rating, Morningglory (morningglory; Rate 200 g/ha, PREEMERGENCE) | Plant response rating (0 to 10 scale), Wild oat (wild oat; PREEMERGENCE) | Plant response rating, Wild oat (wild oat; PREEMERGENCE, Rate 400 g/ha) | Plant response rating, Wild oat (wild oat; Rate 200 g/ha, PREEMERGENCE) | Plant response rating, Sorghum (sorghum; PREEMERGENCE, Rate 50 g/ha) | Plant response rating (0 to 10 scale), Sorghum (sorghum; PREEMERGENCE) | Plant response rating, Sorghum (sorghum; PREEMERGENCE, Rate 400 g/ha) | Plant response rating, Sorghum (sorghum; Rate 200 g/ha, PREEMERGENCE) | Plant response rating, Cocklebur (cocklebur; PREEMERGENCE, Rate 50 g/ha) | Plant response rating (0 to 10 scale), Cocklebur (cocklebur; PREEMERGENCE, Rate 100 g/ha) | Plant response rating, Cocklebur (cocklebur; PREEMERGENCE, Rate 400 g/ha) | Plant response rating, Cocklebur (cocklebur; Rate 200 g/ha, PREEMERGENCE) | Plant response rating, Wheat (wheat; PREEMERGENCE, Rate 50 g/ha) | Plant response rating (0 to 10 scale), Wheat (wheat; PREEMERGENCE) | Plant response rating, Wheat (wheat; PREEMERGENCE, Rate 400 g/ha) | Plant response rating, Wheat (wheat; Rate 200 g/ha, PREEMERGENCE) | Plant response rating, Barnyardgrass (barnyardgrass; PREEMERGENCE, Rate 50 g/ha) | Plant response rating (0 to 10 scale), Barnyardgrass (barnyardgrass; PREEMERGENCE, Rate 100 g/ha) | Plant response rating, Barnyardgrass (barnyardgrass; Rate 200 g/ha, PREEMERGENCE) | Plant response rating, Rice (rice; PREEMERGENCE, Rate 50 g/ha) | Plant response rating (0 to 10 scale), Rice (rice; PREEMERGENCE) | Plant response rating, Rice (rice; PREEMERGENCE, Rate 400 g/ha) | Plant response rating, Rice (rice; Rate 200 g/ha, PREEMERGENCE) | Plant response rating, Cotton (cotton; PREEMERGENCE, Rate 50 g/ha) | Plant response rating (0 to 10 scale), Cotton (cotton; PREEMERGENCE, Rate 100 g/ha) | Plant response rating, Cotton (cotton; Rate 200 g/ha, PREEMERGENCE)
2: Plant response rating, Morningglory (morningglory; PREEMERGENCE, Rate 400 g/ha) | Plant response rating, Wild oat (wild oat; POSTEMERGENCE, Rate 50 g/ha) | Plant response rating (0 to 10 scale), Wild oat (wild oat; POSTEMERGENCE) | Plant response rating (0 to 10 scale), Wheat (wheat; POSTEMERGENCE) | Plant response rating, Wheat (wheat; POSTEMERGENCE, Rate 200 g/ha) | Plant response rating, Wheat (wheat; POSTEMERGENCE, Rate 400 g/ha) | Plant response rating, Barnyardgrass (barnyardgrass; PREEMERGENCE, Rate 400 g/ha) | Plant response rating, Cotton (cotton; PREEMERGENCE, Rate 400 g/ha)
5: Plant response rating, Sorghum (sorghum; POSTEMERGENCE, Rate 200 g/ha) | Plant response rating, Sorghum (sorghum; POSTEMERGENCE, Rate 400 g/ha) | Plant response rating, Barnyardgrass (barnyardgrass; POSTEMERGENCE, Rate 400 g/ha)
1: Plant response rating, Wheat (wheat; POSTEMERGENCE, Rate 50 g/ha)
3: Plant response rating, Wild oat (wild oat; POSTEMERGENCE, Rate 200 g/ha) | Plant response rating, Wild oat (wild oat; POSTEMERGENCE, Rate 400 g/ha) | Plant response rating (0 to 10 scale), Barnyardgrass (barnyardgrass; POSTEMERGENCE, Rate 50 g/ha) | Plant response rating (0 to 10 scale), Barnyardgrass (barnyardgrass; POSTEMERGENCE, Rate 100 g/ha) | Plant response rating, Barnyardgrass (barnyardgrass; POSTEMERGENCE, Rate 200 g/ha) | Plant response rating, Rice (rice; POSTEMERGENCE, Rate 50 g/ha)
4: Plant response rating, Sorghum (sorghum; POSTEMERGENCE, Rate 50 g/ha) | Plant response rating (0 to 10 scale), Sorghum (sorghum; POSTEMERGENCE) | Plant response rating (0 to 10 scale), Rice (rice; POSTEMERGENCE) | Plant response rating, Rice (rice; POSTEMERGENCE, Rate 200 g/ha) | Plant response rating, Rice (rice; POSTEMERGENCE, Rate 400 g/ha)
9: Plant response rating, Morningglory (morningglory; POSTEMERGENCE, Rate 50 g/ha) | Plant response rating (0 to 10 scale), Morningglory (morningglory; POSTEMERGENCE) | Plant response rating, Morningglory (morningglory; POSTEMERGENCE, Rate 200 g/ha) | Plant response rating, Morningglory (morningglory; POSTEMERGENCE, Rate 400 g/ha) | Plant response rating (0 to 10 scale), Cotton (cotton; POSTEMERGENCE, Rate 50 g/ha) | Plant response rating, Cotton (cotton; POSTEMERGENCE, Rate 200 g/ha)
7: Plant response rating (0 to 10 scale), Cocklebur (cocklebur; POSTEMERGENCE, Rate 50 g/ha) | Plant response rating (0 to 10 scale), Cocklebur (cocklebur; POSTEMERGENCE, Rate 100 g/ha)
